In patent publication US10399940B2, “Substituted pyrrolidines and methods of use” (AbbVie S.à.r.l., priority 2016, dated 2019):
Like-named read-outs stand apart in the source and are kept apart here.

Target: T1, F508delCFTR (Homo sapiens, UniProt P13569, DEL508-508)
T1 construct: expressed in transfected cells; host or cells: CFBE41o- (human lung derived epithelial cell line), doxycycline-inducible expression
Assay: Cell Surface Expression-Horse Radish Peroxidase (CSE-HRP) assay
Type: cell-based
Conditions: CFBE41o-F508delCFTR-HRP cells; for Maximum % activity (with co-corrector): with co-corrector (2 μM); for Maximum % activity (with co-corrector) / Maximum % activity (without co-corrector): normalized to on-plate positive control, highest concentration 20 μM
Method in brief: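 CFBE41o- cells expressed F508delCFTR with HRP in the fourth exofacial loop, induced by 0.5 μg/mL doxycycline for 72 h at 37 °C. Compounds alone or with 2 μM co-corrector ran 18–24 h at 33 °C, 8-point 3-fold from 20 μM. Washed-cell luminol luminescence was normalized to DMSO and positive control, fitted sigmoidally for EC50 (three plates).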

[1] = test compound without co-corrector, 18-24 hours at 33° C., read-out: EC50 (without co-corrector)
[2] = with co-corrector (2 μM of 3-[(2R,4R)-4-({[1-(2,2-difluoro-1,3-benzodioxol-5-yl)cyclopropyl]carbonyl}amino)-7-methoxy-3,4-dihydro-2H-chromen-2-yl]benzoic acid), read-out: EC50 (with co-corrector)

T1 sequence (P13569 with tags, fused parts or gaps DEL508-508): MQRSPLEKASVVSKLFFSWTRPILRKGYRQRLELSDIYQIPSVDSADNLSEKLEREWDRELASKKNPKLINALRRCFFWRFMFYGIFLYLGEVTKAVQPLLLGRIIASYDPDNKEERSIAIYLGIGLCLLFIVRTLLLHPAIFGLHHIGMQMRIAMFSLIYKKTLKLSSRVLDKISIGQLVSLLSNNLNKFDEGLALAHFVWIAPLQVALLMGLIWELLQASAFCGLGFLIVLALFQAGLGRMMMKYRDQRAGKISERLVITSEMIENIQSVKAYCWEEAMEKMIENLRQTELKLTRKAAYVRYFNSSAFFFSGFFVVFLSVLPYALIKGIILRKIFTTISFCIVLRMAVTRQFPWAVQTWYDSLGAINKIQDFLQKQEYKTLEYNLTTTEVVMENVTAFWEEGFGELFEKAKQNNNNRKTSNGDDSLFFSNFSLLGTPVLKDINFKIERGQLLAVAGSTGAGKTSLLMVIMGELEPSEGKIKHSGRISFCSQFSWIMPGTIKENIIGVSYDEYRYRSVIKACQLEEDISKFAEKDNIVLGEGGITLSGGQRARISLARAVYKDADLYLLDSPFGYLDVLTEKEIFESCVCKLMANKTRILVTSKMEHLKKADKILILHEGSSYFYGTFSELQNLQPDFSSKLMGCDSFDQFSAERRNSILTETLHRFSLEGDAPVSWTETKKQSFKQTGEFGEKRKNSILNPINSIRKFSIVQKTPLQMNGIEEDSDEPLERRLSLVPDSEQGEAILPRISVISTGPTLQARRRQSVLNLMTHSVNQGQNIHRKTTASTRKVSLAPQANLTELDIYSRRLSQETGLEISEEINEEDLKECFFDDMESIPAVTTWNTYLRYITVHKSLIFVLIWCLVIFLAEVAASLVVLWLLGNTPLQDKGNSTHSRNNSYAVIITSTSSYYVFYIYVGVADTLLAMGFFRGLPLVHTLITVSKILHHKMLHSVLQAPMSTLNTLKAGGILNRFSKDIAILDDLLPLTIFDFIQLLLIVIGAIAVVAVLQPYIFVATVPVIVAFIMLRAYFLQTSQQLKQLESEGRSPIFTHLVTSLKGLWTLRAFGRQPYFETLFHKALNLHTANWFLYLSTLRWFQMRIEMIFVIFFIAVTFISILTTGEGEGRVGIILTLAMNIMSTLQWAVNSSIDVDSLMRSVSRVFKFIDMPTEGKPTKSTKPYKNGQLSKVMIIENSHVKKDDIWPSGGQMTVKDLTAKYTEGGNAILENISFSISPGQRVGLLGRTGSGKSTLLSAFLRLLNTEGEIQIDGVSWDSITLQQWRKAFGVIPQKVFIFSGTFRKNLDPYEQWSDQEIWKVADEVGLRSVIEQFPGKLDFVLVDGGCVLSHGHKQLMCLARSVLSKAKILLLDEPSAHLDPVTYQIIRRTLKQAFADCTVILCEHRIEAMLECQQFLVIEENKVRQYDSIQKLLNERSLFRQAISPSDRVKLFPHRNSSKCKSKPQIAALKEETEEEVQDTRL

| Compound | EC50 [1] [nM] | EC50 [2] [nM] | Maximum % activity (with co-corrector) | Maximum % activity (without co-corrector) |
| --- | --- | --- | --- | --- |
| COc1nc2c(C)ccc(C)c2cc1CO[C@H]1[C@H](C(C)(C)C)[C@@H](C(=O)O)N(C(=O)C2CCCCC2)[C@H]1c1cccnc1OC(C)C [Example 248, (2S,3R,4S,5S)-3-tert-butyl-1-(cyclohexanecarbonyl)-4-[(2-methoxy-5,8-dimethylquinolin-3-yl)methoxy]-5-{2-[(propan-2-yl)oxy]pyridin-3-yl}pyrrolidine-2-carboxylic acid] | 1000 to 10000 | 1000 to 10000 | +++ (≥350) | +++ (≥200) |
| C=C(CO[C@H]1[C@H](C(C)(C)C)[C@@H](C(=O)O)N(C(=O)[C@@H]2CCCCO2)[C@H]1c1ccccc1C)c1cc(C(F)(F)F)ccc1OC [Example 249, (2S,3R,4S,5S)-3-tert-butyl-4-({2-[2-methoxy-5-(trifluoromethyl)phenyl]prop-2-en-1-yl}oxy)-5-(2-methylphenyl)-1-[(2S)-oxane-2-carbonyl]pyrrolidine-2-carboxylic acid] | 1000 to 10000 | < 1000 | +++ (≥350) | +++ (≥200) |
| COc1ncc(C(C)(C)C)cc1CO[C@H]1[C@H](C(C)(C)C)[C@@H](C(=O)O)N(C(=O)C2CCCCC2)[C@H]1c1cccnc1OC(C)C [Example 250, (2S,3R,4S,5S)-3-tert-butyl-4-[(5-tert-butyl-2-methoxypyridin-3-yl)methoxy]-1-(cyclohexanecarbonyl)-5-{2-[(propan-2-yl)oxy]pyridin-3-yl}pyrrolidine-2-carboxylic acid] | < 1000 | < 1000 | +++ (≥350) | ++ (≥100 and <200) |
| COc1ccc(C(C)(C)C)cc1CO[C@H]1[C@H](C(C)(C)C)[C@@H](C(=O)O)N(C(=O)C2CCCCC2)[C@H]1c1cccnc1OC(C)C [Example 251, (2S,3R,4S,5S)-3-tert-butyl-4-[(5-tert-butyl-2-methoxyphenyl)methoxy]-1-(cyclohexanecarbonyl)-5-{2-[(propan-2-yl)oxy]pyridin-3-yl}pyrrolidine-2-carboxylic acid] | < 1000 | < 1000 | +++ (≥350) | +++ (≥200) |
| COc1nc2cc(C)cc(C)c2cc1CO[C@H]1[C@H](C(C)(C)C)[C@@H](C(=O)O)N(C(=O)C2CCCCC2)[C@H]1c1cccnc1OC(C)C [Example 252, (2S,3R,4S,5S)-3-tert-butyl-1-(cyclohexanecarbonyl)-4-[(2-methoxy-5,7-dimethylquinolin-3-yl)methoxy]-5-{2-[(propan-2-yl)oxy]pyridin-3-yl}pyrrolidine-2-carboxylic acid] | 1000 to 10000 | 1000 to 10000 | +++ (≥350) | +++ (≥200) |
| COc1nc2cc(C)cc(C)c2cc1CO[C@H]1[C@H](C(C)(C)C)[C@@H](C(=O)O)N(C(=O)OC(C)C)[C@H]1c1cccnc1OC(C)C [Example 253, (2S,3R,4S,5S)-3-tert-butyl-4-[(2-methoxy-5,7-dimethylquinolin-3-yl)methoxy]-1-{[(propan-2-yl)oxy]carbonyl}-5-{2-[(propan-2-yl)oxy]pyridin-3-yl}pyrrolidine-2-carboxylic acid] | 1000 to 10000 | 1000 to 10000 | +++ (≥350) | +++ (≥200) |
| CCc1ccccc1[C@H]1[C@@H](OCc2cc3ccccc3nc2OC)[C@H](C(C)(C)C)[C@@H](C(=O)O)N1C(=O)[C@@H]1CCCCO1 [Example 254, (2S,3R,4S,5S)-3-tert-butyl-5-(2-ethylphenyl)-4-[(2-methoxyquinolin-3-yl)methoxy]-1-[(2S)-oxane-2-carbonyl]pyrrolidine-2-carboxylic acid] | 1000 to 10000 | < 1000 | +++ (≥350) | +++ (≥200) |
| Cc1ccccc1[C@H]1[C@@H](OCc2nc3ccccc3n2C)[C@H](C(C)(C)C)[C@@H](C(=O)O)N1C(=O)[C@@H]1CCCCO1 [Example 255, (2S,3R,4S,5S)-3-tert-butyl-4-[(1-methyl-1H-benzimidazol-2-yl)methoxy]-5-(2-methylphenyl)-1-[(2S)-oxane-2-carbonyl]pyrrolidine-2-carboxylic acid] | > 10000 | 1000 to 10000 | ++ (≥150 and <350) | + (<100) |
| COc1ncc(C2CCC2)cc1CO[C@H]1[C@H](C(C)(C)C)[C@@H](C(=O)O)N(C(=O)C2CCCCC2)[C@H]1c1cccc2c1OC(C)(C)C2 [Example 256, (2S,3R,4S,5S)-3-tert-butyl-4-[(5-cyclobutyl-2-methoxypyridin-3-yl)methoxy]-1-(cyclohexanecarbonyl)-5-(2,2-dimethyl-2,3-dihydro-1-benzofuran-7-yl)pyrrolidine-2-carboxylic acid] | 1000 to 10000 | < 1000 | +++ (≥350) | + (<100) |
| COc1ncc(C(F)(F)F)cc1CO[C@H]1[C@H](C(C)(C)C)[C@@H](C(=O)O)N(C(=O)C2CCCCC2)[C@H]1c1cccc2c1OC(C)(C)C2 [Example 257, (2S,3R,4S,5S)-3-tert-butyl-1-(cyclohexanecarbonyl)-5-(2,2-dimethyl-2,3-dihydro-1-benzofuran-7-yl)-4-{[2-methoxy-5-(trifluoromethyl)pyridin-3-yl]methoxy}pyrrolidine-2-carboxylic acid] | < 1000 | < 1000 | ++ (≥150 and <350) | + (<100) |
| COc1ncc(C(F)(F)F)cc1CO[C@H]1[C@H](C(C)(C)OC)[C@@H](C(=O)O)N(C(=O)C2CCCCC2)[C@H]1c1ccccc1C(C)C [Example 258, (2S,3R,4S,5S)-1-(cyclohexanecarbonyl)-3-(2-methoxypropan-2-yl)-4-{[2-methoxy-5-(trifluoromethyl)pyridin-3-yl]methoxy}-5-[2-(propan-2-yl)phenyl]pyrrolidine-2-carboxylic acid] | < 1000 | < 1000 | +++ (≥350) | +++ (≥200) |
| COc1ncc(C(F)(F)F)cc1CO[C@H]1[C@H](C(C)(C)OC)[C@@H](C(=O)O)N(C(=O)OC(C)C)[C@H]1c1ccccc1C(C)C [Example 259, (2S,3R,4S,5S)-3-(2-methoxypropan-2-yl)-4-{[2-methoxy-5-(trifluoromethyl)pyridin-3-yl]methoxy}-1-{[(propan-2-yl)oxy]carbonyl}-5-[2-(propan-2-yl)phenyl]pyrrolidine-2-carboxylic acid] | < 1000 | < 1000 | +++ (≥350) | +++ (≥200) |
| COc1ncc(C(F)(F)F)cc1CO[C@H]1[C@H](C(C)(C)OC)[C@@H](C(=O)O)N(C(=O)[C@@H]2CCCCO2)[C@H]1c1ccccc1C(C)C [Example 260, (2S,3R,4S,5S)-3-(2-methoxypropan-2-yl)-4-{[2-methoxy-5-(trifluoromethyl)pyridin-3-yl]methoxy}-1-[(2S)-oxane-2-carbonyl]-5-[2-(propan-2-yl)phenyl]pyrrolidine-2-carboxylic acid] | < 1000 | < 1000 | +++ (≥350) | +++ (≥200) |
| COc1ccc(C(F)(F)F)cc1C(C)CO[C@H]1[C@H](C(C)(C)C)[C@@H](C(=O)O)N(C(=O)[C@@H]2CCCCO2)[C@H]1c1ccccc1C (stereo partly drawn) [Example 261, (2S,3R,4S,5S)-3-tert-butyl-4-{2-[2-methoxy-5-(trifluoromethyl)phenyl]propoxy}-5-(2-methylphenyl)-1-[(2S)-oxane-2-carbonyl]pyrrolidine-2-carboxylic acid] | 1000 to 10000 | < 1000 | +++ (≥350) | +++ (≥200) |
| COc1ccc(C(F)(F)F)cc1[C@](O)(CO)CO[C@H]1[C@H](C(C)(C)C)[C@@H](C(=O)O)N(C(=O)[C@@H]2CCCCO2)[C@H]1c1ccccc1C [Example 262, (2S,3R,4S,5S)-3-tert-butyl-4-{(2S)-2,3-dihydroxy-2-[2-methoxy-5-(trifluoromethyl)phenyl]propoxy}-5-(2-methylphenyl)-1-[(2S)-oxane-2-carbonyl]pyrrolidine-2-carboxylic acid] | 1000 to 10000 | 1000 to 10000 | ++ (≥150 and <350) | + (<100) |
| COc1ccc(C(F)(F)F)cc1[C@@](O)(CO)CO[C@H]1[C@H](C(C)(C)C)[C@@H](C(=O)O)N(C(=O)[C@@H]2CCCCO2)[C@H]1c1ccccc1C [Example 263, (2S,3R,4S,5S)-3-tert-butyl-4-{(2R)-2,3-dihydroxy-2-[2-methoxy-5-(trifluoromethyl)phenyl]propoxy}-5-(2-methylphenyl)-1-[(2S)-oxane-2-carbonyl]pyrrolidine-2-carboxylic acid] | > 10000 | 1000 to 10000 | ++ (≥150 and <350) | + (<100) |
